Reference: US10942183B2, “Methods of detecting progesterone receptor and of detecting an expression level” (REGENTS OF THE UNIVERSITY OF MINNESOTA, priority 2017, dated 2021)

Tests used:
[1] = test system: PR Ser294 phosphorylation; assay: Breast tumor explants, phospho-Ser294 PR IHC; format: cell-based, human; settings: progesterone 10 nM plus U0126 (1 nM as printed elsewhere in the source), 2 hours
From the text: De-identified breast tumor samples were collected after surgery and immediately processed for tissue explant maintenance on sponges in cell culture medium, as previously described (Ravindranathan et al. Nature Communications 2013, 4:1923). Samples were derived from six patients pathologically diagnosed with invasive ductal carcinoma (IDC) and scored positive for ER (94-100%) and PR (1-100%), and negative for HER2 expression. […] In additional experiments, six explants were similarly treated with estrogen or progesterone (2 hours) but in combination with 1 uM U0126 (to inhibit ERKs 1/2) and phospho-Ser294 PR levels were measured by IHC.
ER+ luminal tumors were maintained as explants as above and instead treated with either vehicle or progesterone (10 nM) for 2 hours in the presence or absence of the MEK1/2 inhibitor U0126 (1 nM) prior to IHC staining using specific antibodies for total and phospho-Ser294 PR as well as ER-alpha and phospho-ERK1/2 (n=6; see Methods).

[2] = test system: PR Ser294 phosphorylation; assay: PR Ser294 phosphorylation in T47D cells (Western blotting, immunofluorescence); format: cell-based, human; settings: T47D cells expressing WT or KR PR
Experimental: T47D human breast cancer cell lines engineered to stably express PR variants (null, WT, K388R, or S294A) were previously described (Knutson et al. Breast Cancer Res 2012, 14:R9). T47D cells were maintained in complete minimal essential medium (cMEM) supplemented with 5% fetal bovine serum (FBS), 1% non-essential amino acids (NEAA), 1% penicillin/streptomycin, 6 ng/ml insulin (CellGro, Manassas, Va., USA, catalog #10-010-CV). T47D cells described above were engineered to also stably express RUNX2 shRNAs via the pLKO.1 knockdown expression vector system, which required 25 μg/ml puromycin for the vector. In various experiments, cells or explants were treated with E2, ICI 182 780, R5020, mifepristone, aglepristone, or onapristone (Arno Therapeutics, Inc., Flemington, N.J.).
Immunocytochemistry was performed on T47D cells expressing PR variants to measure total- and phospho-Ser294 PR levels. 500,000 cells were grown on coverslips in 6-well plates, starved in IMEM plus 5% charcoal stripped FBS, treated, and fixed with 4% paraformaldehyde for 20 min. The cells were permeabilized with 0.3% Triton-X100 before incubating with total-PR (clone Ab8, ThermoFisher Scientific, Waltham, Mass.) or custom phospho-Ser294-PR (clone 8508) antibodies. Cells were incubated with fluorescent secondary antibodies (Alexa Fluor 488) and DAPI mounting medium (Life Technologies, ThermoFisher Scientific, Waltham, Mass.) before visualizing on a Zeiss microscope with A4 and L5 filter cubes. Immunoblotting was performed as previously described (Daniel et al. Mol Endocrinol 2007, 21:2890-2906).
In addition, extensive luminal breast cancer heterogeneity may limit the ability to observe a subset of PR-driven breast cancers without patient selection. In this case, PR target gene expression may provide an accurate means of predicting which breast tumors are likely to be influenced by PR-driven biological pathways enacted by active phospho-Ser294 PRs. To probe changes in PR target gene expression in the presence or absence of commonly used PR ligands (R5020, RU486), including diverse antiprogestins (aglepristone, onapristone) currently in development for clinical use, the well characterized model system of T47D breast cancer cells, stably expressing either unmodified wild-type (WT) PR-B or a transcriptionally hyperactive form of deSUMOylated K388R PR-B (KR; this receptor faithfully mimics phosphorylated PR-B with regard to target gene selection) were used (Knutson et al. Pharmacology & therapeutics 2014, 142:114-125; Daniel et al. Mol Endocrinol 2007, 21:2890-2906). Whether the antiprogestins mifepristone (also called RU486), aglepristone, or onapristone alter PR Ser294 phosphorylation were tested in these T47D breast cancer models. Cells were treated for 1 hour with vehicle, progesterone, mifepristone, aglepristone, or onapristone and whole cell lysates were processed for Western blotting or immunofluorescence (IF) analysis (FIG. 4A, B). […] Greater loss of total KR PR protein was also apparent in the presence of progesterone and selected antiprogestins relative to liganded WT PR, consistent with increased turnover of deSUMOylated active receptors relative to intact WT PRs.

[3] = test system: PR target gene expression; assay: Global gene expression analysis (Illumina HT-12v4) in T47D cells expressing WT or K388R PR-B; format: cell-based, human; settings: T47D KR PR, antiprogestin 10^-7 M, 6 hours
Experimental: For genome-wide microarray expression analysis, T47D cells expressing pIRES-neo3 empty vector, WT PR, or K388R PR were serum starved in modified improved minimum essential media (IMEM) (Gibco, ThermoFisher Scientific, Waltham, Mass.) for one day before treatment. Eight groups were treated with vehicle control, progesterone (10^−8 M), mifepristone (10^−7 M), aglepristone (10^−7 M), onapristone (10^−7 M), or combined treatment of progesterone+mifepristone, progesterone+aglepristone, or progesterone+onapristone for six hours before RNA extraction using a RNeasy kit (QIAgen). DNase I treated (QIAgen) RNA samples from triplicate experiments were prepared for expression analysis using the Illumina HT-12v4 bead chip platform according to standard protocols. Raw data from agonist-treated cells (progesterone or R5020) collected from two identically performed independent experiments (from this study and a previous study: GSE34148 (Knutson et al. Breast Cancer Res 2012, 14:R95)) was combined, normalized, and batch-corrected to ensure that gene expression values were informative across samples from separate experiments. Data were analyzed within multiple common R (R Core Team: R: A language and environment for statistical computing. R Foundation for Statistical Computing, Vienna, Austria 2015, [available on the world wide web at r-project.org/]) and Bioconductor (Gentleman et al. Genome Biol 2004, 5:R80) packages. Raw intensities were log 2 transformed and quantile normalized using lumi (Du et al. Bioinformatics 2008, 24:1547-1548), batch corrected using sva (Leek et al.: sva: Surrogate Variable Analysis. R package version 3.18.0.), and multiple probes for a single gene were collapsed using genefilter (Gentleman et al.: genefilter: genefilter: methods for filtering genes from high-throughput experiments. R package version 1.52.1). Differentially expressed genes (pairwise comparisons between all eight groups) were analyzed in limma (Smyth: Limma: linear models for microarray data. In: Bioinformatics and computational biology solutions using R and Bioconductor. edn.: Springer; 2005: 397-420), where empirical Bayes was used to better estimate the variance of the genes. Biological comparisons (for example, R5020/vehicle) were presented as log 2 fold change including the Benjamini and Hochberg (BH) adjusted P value (Benjamini et al. J Roy Stat Soc B Met 1995, 57:289-300) to account for multiple hypothesis testing. Expression data is available in the GEO database, accession: GSE94363.
Normalized gene expression data were filtered to isolate only high variance genes using the bioconductor package genefilter (Gentleman et al.: genefilter: genefilter: methods for filtering genes from high-throughput experiments. In., R package version 1.50.0 edn: R package version 1.50.0) using interquartile range cutoff value of 0.85. Non-negative matrix factorization (NMF) was performed within R using the NMF package version 0.20.5 (Gaujoux et al. BMC bioinformatics 2010, 11:367) where matrix factors were rank (2-10) and algorithm (brunet or snmf/r) optimized using the nmf function with parameters nrun=30 and seed=123456. […] Clustering and plots were performed in R (NMF package, a heat map function) using Euclidean distance and UPGMA (average) linkage.
PR ligand-mediated promoter selectivity remains understudied, especially in the context of antiprogestins and posttranslationally modified PR species. […]

T47D cells = assay: Mammosphere formation in T47D cells; format: cell-based, human; settings: T47D EV, WT, KR or S294A PR-B; estrogen 1 nM, progesterone 10 nM; 14 days
Experimental: Primary Mammospheres: Adherent cells were washed with PBS and dissociated enzymatically in 0.25% trypsin-EDTA (Invitrogen Corporation, Carlsbad, Calif.). Cells were sieved through a 40-μm sieve (BD FALCON, BD Biosciences, Bedford, Mass.) and analyzed microscopically for single-cellularity. Single cells were plated in ultra-low attachment plates (Corning, Inc., Corning, N.Y.) and cultured in a humid incubator. Cells were grown in a serum-free mammary epithelial basal medium (MEBM; Lonza Group, Basel, Switzerland) containing 1% B27 Supplement (Invitrogen Corporation, Carlsbad, Calif.), 1% penicillin-streptomycin (Invitrogen Corporation, Carlsbad, Calif.), 5 μg/ml insulin (Invitrogen Corporation, Carlsbad, Calif.), 20 ng/ml EGF (Sigma-Aldrich, St. Louis, Mo.), 1 ng/ml hydrocortisone (Sigma-Aldrich, St. Louis, Mo.), and 100 μM β-mercaptoethanol. […] Mammosphere Forming Efficiency (MFE) % was calculated by the number of mammospheres per well/number of cells seeded per well.
Secondary Mammospheres: Primary mammospheres were collected by centrifugation (5 min, 1000 rpm), and dissociated enzymatically in 0.25% typsin-EDTA. Cells were sieved through a 40-μm tip strainer (Bel-Art SP Scienceware, South Wayne, N.J.) and analyzed microscopically for single-cellularity. […] Mammosphere Forming Efficiency (MFE) % was calculated by the number of mammospheres per well/number of cells seeded per well. […]

breast cancer = settings: women receiving tamoxifen; cited from earlier work

**Q.** Which “effect on progesterone-induced PR Ser294 phosphorylation in tumor explants” value [1] does the source give for `N#CC(=C(/N)Sc1ccccc1N)/C(C#N)=C(\N)Sc1ccccc1N` [U0126] here?
**A.** blocked

**Q.** With `C/C=C\[C@]1(O)CC[C@H]2[C@@H]3CCC4=CC(=O)CCC4=C3[C@@H](c3ccc(N(C)C)cc3)C[C@@]21C` [aglepristone] as the compound, how does the “PR Ser294 phosphorylation, ligand alone” value ([2]; 1 hour) read?
**A.** stimulated robust PR Ser294 phosphorylation

**Q.** What about the “PR Ser294 phosphorylation in the presence of progesterone (co-treatment)” value ([2]; progesterone plus antiprogestin) of the same compound?
**A.** also induced Ser294 phosphorylation

**Q.** And the “regulation of PR target genes in cells expressing KR PR” value [3]?
**A.** substantially regulate multiple genes in cells expressing KR PR

**Q.** For `C[C@]12CC[C@@H]3c4ccc(O)cc4CC[C@H]3[C@@H]1CC[C@@H]2O` [estrogen, estradiol], which “total numbers of primary and secondary mammospheres on addition of hormone to culture media” value (T47D cells) is on record?
**A.** had no significant effect on total numbers in any condition

**Q.** Which “women suffering tumor relapse” value (breast cancer) does the source give for `CC/C(=C(\c1ccccc1)c1ccc(OCCN(C)C)cc1)c1ccccc1` [tamoxifen] here?
**A.** ~40%
